pEC50: −log10 of the molar value. Read-outs that look alike come from different tables or passages of the source.
Tested on: HBsAg
Experiment: HBsAg assay: inhibition of HBsAg in HepG2.2.15 cells (chemiluminescence immunoassay of supernatant)
Type: cell-based, hepatitis B virus
Conditions: HBsAg in supernatant at day 6 after exposure to compound, 0.5% DMSO
Summary of the method: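 HepG2.2.15 cells treated with serially diluted compounds (0.5% DMSO), medium and compound refreshed after 2–3 days, supernatant harvested at day 6. Secreted HBsAg measured by chemiluminescence immunoassay; EC50 from dose-response curves, with parallel CellTiter-Glo viability at 5,000 cells/well.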

[1] = read-out: sAg EC50, HepG2.2.15 cells
[2] = Hepatitis B virus, HepG2.2.15, 144 h, read-out: sAg EC50, HepG2.2.15 cells

Structure (SMILES): COc1cc(C2CC2c2cnc(-c3ncccn3)nc2)c(C)cc1Cl (single isomer, unassigned) [Example 51, trans-5-(2-(4-Chloro-5-methoxy-2-methylphenyl)cyclopropyl)-2,2′-bipyrimidine]
- pEC50 [1]: 6.54

Structure (SMILES): Fc1ccc(C2CC2c2cnc(-c3ncccn3)nc2)cc1Cl (single isomer, unassigned) [Example 29, trans-5-(2-(3-Chloro-4-fluorophenyl)cyclopropyl)-2,2′-bipyrimidine]
- pEC50 [1]: 6.11

Structure (SMILES): COc1cc(C2CC2c2cnc(-c3ncccn3)nc2)c(-c2ccccc2)cc1Cl (single isomer, unassigned) [Example 159, trans-5-(2-(5-Chloro-4-methoxy-[1,1′-biphenyl]-2-yl)cyclopropyl)-2,2′-bipyrimidine]
- pEC50 [1]: 4.31

Structure (SMILES): COc1cc(C2CC2c2cnc(-c3ncccn3)nc2)ccc1F (single isomer, unassigned) [Example 10, trans-5-(2-(4-Fluoro-3-methoxyphenyl)cyclopropyl)-2,2′-bipyrimidine]
- pEC50 [1]: 7.40

Structure (SMILES): OC1CN(c2cc(C3CC3c3cnc(-c4ncccn4)nc3)ccc2F)C1 (single isomer, unassigned) [Example 53, trans-1-(5-(2-([2,2′-Bipyrimidin]-5-yl)cyclopropyl)-2-fluorophenyl)azetidin-3-ol]
- pEC50 [1]: 6.30

Structure (SMILES): COc1cc([C@@H]2C[C@H]2c2cnc(-c3ncccn3)nc2C)ccc1F (relative stereo) [Example 16, trans-5-(2-(4-Fluoro-3-methoxyphenyl)cyclopropyl)-4-methyl-2,2′-bipyrimidine]
- pEC50 [2]: 6.12

Structure (SMILES): COc1cc(C2CC2c2cnc(-c3ncccn3)nc2N2CCCCC2)ccc1F (single isomer, unassigned) [Example 145, trans-5-(2-(4-Fluoro-3-methoxyphenyl)cyclopropyl)-4-(piperidin-1-yl)-2,2′-bipyrimidine]
- pEC50 [1]: 6.15

Structure (SMILES): COc1cc(C2CC2c2cnc(-c3ncccn3)nc2)cc(Cl)c1Cl (single isomer, unassigned) [Example 59, trans-5-(2-(3,4-Dichloro-5-methoxyphenyl)cyclopropyl)-2,2′-bipyrimidine]
- pEC50 [1]: 7.49

Structure (SMILES): CN(C)C(=O)c1cc(C2CC2c2cnc(-c3ncccn3)nc2)ccc1Cl (single isomer, unassigned) [Example 204, trans-5-(2-([2,2′-Bipyrimidin]-5-yl)cyclopropyl)-2-chloro-N,N-dimethylbenzamide]
- pEC50 [1]: 5.40

Structure (SMILES): Fc1cc(C2CC2c2cnc(-c3ncccn3)nc2)cc(OCC2CC2)c1F (single isomer, unassigned) [Example 128, trans-5-(2-(3-(Cyclopropylmethoxy)-4,5-difluorophenyl)cyclopropyl)-2,2′-bipyrimidine]
- pEC50 [1]: 6.38

Structure (SMILES): COc1cccnc1-c1ncc([C@@H]2C[C@H]2c2cc(F)c(F)c(OC)c2)cn1 (relative stereo) [Example 180, trans-5-(2-(3,4-Difluoro-5-methoxyphenyl)cyclopropyl)-2-(3-methoxypyridin-2-yl)pyrimidine]
- pEC50 [2]: 6.00

Structure (SMILES): COCCOc1cc(C2CC2c2cnc(-c3ncccn3)nc2)cc(F)c1F (single isomer, unassigned) [Example 135, trans-5-(2-(3,4-Difluoro-5-(2-methoxyethoxy)phenyl)cyclopropyl)-2,2′-bipyrimidine]
- pEC50 [1]: 7.66

Structure (SMILES): COc1cc(C2CC2c2cnc(-c3ncccn3)nc2)cc(Cl)c1Cl (single isomer, unassigned) [Example 60, trans-5-(2-(3,4-Dichloro-5-methoxyphenyl)cyclopropyl)-2,2′-bipyrimidine]
- pEC50 [1]: 6.60

Structure (SMILES): COCCOC1CN(c2cc([C@@H]3C[C@H]3c3cnc(-c4ncccn4)nc3)cc(F)c2F)C1 (relative stereo) [Example 212, trans-5-(2-(3,4-Difluoro-5-(3-(2-methoxyethoxy)azetidin-1-yl)phenyl)cyclopropyl)-2,2′-bipyrimidine]
- pEC50 [2]: 7.52

Structure (SMILES): O[C@H]1CCN(c2cc(C3CC3c3cnc(-c4ncccn4)nc3)cc(F)c2F)C1 (single isomer, unassigned) [Example 107]
- pEC50 [1]: 7.68

Structure (SMILES): O[C@@H]1CCN(c2cc(C3CC3c3cnc(-c4ncccn4)nc3)ccc2F)C1 (single isomer, unassigned) [Example 70]
- pEC50 [1]: 6.57

Structure (SMILES): CCOC(=O)C1C(c2cnc(-c3ncccn3)nc2)C1c1cc(F)c(F)c(OC)c1 (stereo not drawn) [Example 263, trans-Ethyl 2-([2,2′-bipyrimidin]-5-yl)-3-(3,4-difluoro-5-methoxyphenyl)cyclopropane-1-carboxylate]
- pEC50 [2]: 4.92

— patent publication US20230083973A1, “SUBSTITUTED CYCLOPROPYL-2,2'-BIP[…], ANALOGUES THEREOF, AND METHODS USING SAME” (priority 2019, published 2023)
